Measurements published in patent publication US20260193293A1, “PEPTIDES CAPABLE OF INHIBITING PROTEIN-PROTEIN INTERACTIONS AT GABAB1A SUBUNIT AND USES THEREOF” (UNIVERSITY OF COPENHAGEN, priority 2022, published 2026).
Where two headings read alike, the source gives them in different places. Non-standard residues stand in square brackets, D forms with d. Residues, ends and D or L forms follow the SMILES beside them. 2Nal = N[C@@H](Cc1ccc2ccccc2c1)C(=O)O; Sar = CNCC(=O)O

Target: Sushi domains (SD1/2) protein
Assay: Fluorescence polarization (FP) competition assay with AJAP-1probe, calculated Ki
Type: binding
Outline: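 Ki values were derived from IC50s (sigmoidal fits, ≥ triplicate), with probe Kd obtained by saturation titration of SD1/2. Peptides displaced a 25 nM TAMRA-labelled probe; polarization read at 530/580 nm in 1% BSA-containing PBS, pH 7.4, room temperature.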

[1] = Table 11, deep mutational scanning validation variants of AJAP-1WT, read-out: Ki (nM) mean ± SEM

## CC[C@H](C)[C@H](NC(=O)[C@H](Cc1c[nH]c2ccccc12)NC(=O)[C@H](CO)NC(=O)[C@H](CC(=O)O)NC(=O)[C@H](CC(=O)O)NC(=O)[C@H](CCC(=O)O)NC(C)=O)C(=O)N[C@@H](CC(=O)O)C(=O)N[C@@H](Cc1c[nH]c2ccccc12)C(=O)NCC(=O)N1CCC[C@H]1C(=O)N[C@H](C(=O)NCC(=O)N[C@@H](CC(=O)O)C(=O)N[C@@H](CCC(=O)O)C(=O)N[C@@H](CC(=O)O)C(N)=O)[C@@H](C)O [Peptide 29, Ac-EDDSWIDWGPTGDED-NH2] (Ac-EDDSWIDWGPTGDED-NH2)
Table 1, affinity maturation, mean ± SEM, n ≥ 3, read-out: Ki
  Ki: 5.6 ± 0.7 nM
Table 13, peptides for affinity maturation, read-out: Ki (nM) mean ± SEM
  Ki: 5.6 ± 0.7 nM

## CC[C@H](C)[C@H](NC(=O)[C@H](C)NC(=O)[C@H](Cc1c[nH]c2ccccc12)NC(=O)[C@@H]1CCCN1C(C)=O)C(=O)N[C@H](C(=O)N[C@@H](Cc1c[nH]c2ccccc12)C(=O)NCC(=O)N1CCC[C@H]1C(=O)N[C@H](C(=O)N[C@H](C(=O)N[C@@H](C)C(=O)N[C@@H](CCCNC(=N)N)C(=O)N[C@@H](CCC(=O)O)C(=O)N[C@@H](CC(=O)O)C(N)=O)C(C)C)[C@@H](C)O)C(C)C [PWAIVWGPTVARED] (Ac-PWAIVWGPTVARED-NH2)
Table 9, Ala-, D-amino acids and N-methylation scans of PIANPWT, read-out: Ki (nM) mean ± SEM
  Ki: 480 ± 4 nM

## CC[C@H](C)[C@H](NC(=O)[C@H](C)NC(=O)[C@H](Cc1c[nH]c2ccccc12)NC(=O)[C@@H]1CCCN1C(=O)[C@H](Cc1ccc(O)cc1)NC(=O)[C@H](CCC(N)=O)NC(=O)[C@H](CO)NC(=O)[C@H](CO)NC(=O)[C@@H]1CCCN1C(C)=O)C(=O)N[C@H](C(=O)N[C@@H](Cc1c[nH]c2ccccc12)C(=O)NCC(=O)N1CCC[C@H]1C(=O)N[C@H](C(=O)N[C@H](C(=O)N[C@@H](CO)C(=O)N[C@@H](CCCNC(=N)N)C(=O)N[C@@H](CCC(=O)O)C(=O)N[C@@H](CC(=O)O)C(=O)NCC(N)=O)C(C)C)[C@@H](C)O)C(C)C (Ac-PSSQYPWAIVWGPTVSREDG-NH2)
Table 6, elongation and truncation scan of PIANP binding epitope, read-out: Ki (nM) mean ± SEM
  Ki: > 62500 nM

## CC[C@H](C)[C@H](NC(=O)[C@H](Cc1ccccc1)NC(=O)[C@H](CCC(=O)O)NC(=O)[C@@H](NC(=O)[C@H](CCC(=O)O)NC(C)=O)[C@@H](C)O)C(=O)N[C@@H](C)C(=O)N[C@@H](Cc1c[nH]c2ccccc12)C(=O)NCC(=O)N1CCC[C@H]1C(=O)N[C@H](C(=O)NCC(=O)N[C@@H](CC(=O)O)C(=O)N[C@@H](CC(N)=O)C(=O)N[C@@H](CC(=O)O)C(N)=O)[C@@H](C)O
[1]
  Ki: 39 ± 1 nM

## CC[C@H](C)[C@H](NC(=O)[C@H](Cc1ccccc1)NC(=O)[C@H](CCC(=O)O)NC(=O)[C@@H](NC(=O)[C@H](CCC(=O)O)NC(C)=O)[C@@H](C)O)C(=O)N[C@@H](C)C(=O)N[C@@H](Cc1c[nH]c2ccccc12)C(=O)NCC(=O)N1CCC[C@H]1C(=O)N[C@H](C(=O)NCC(=O)N[C@@H](CC(=O)O)C(=O)N[C@@H](Cc1c[nH]cn1)C(=O)N[C@@H](CC(=O)O)C(N)=O)[C@@H](C)O
[1]
  Ki: 39 ± 2 nM

## CC(=O)N[C@@H](CCC(=O)O)C(=O)N[C@@H](CC(=O)O)C(=O)N[C@@H](CC(=O)O)C(=O)N[C@@H](CO)C(=O)N[C@@H](CC(=O)O)C(=O)N[C@H](C(=O)N[C@@H](Cc1c[nH]c2ccccc12)C(=O)N[C@@H](Cc1c[nH]c2ccccc12)C(=O)N[C@@H](Cc1ccc2ccccc2c1)C(=O)NCC(=O)N[C@@H](C)C(=O)N[C@@H](CC(=O)O)C(=O)N[C@H](C(=O)N[C@@H](CC(=O)O)C(N)=O)[C@@H](C)O)C(C)C (Ac-EDDSDVWW[2Nal]GADTD-NH2)
Table 16, ncAAs incorporated peptides, read-out: Ki (nM) mean ± SEM
  Ki: 75 ± 1 nM

## CC[C@H](C)[C@H](NC(=O)[C@H](Cc1ccccc1)NC(=O)[C@H](CCC(=O)O)NC(=O)[C@@H](NC(=O)[C@H](CCC(=O)O)NC(C)=O)[C@@H](C)O)C(=O)N[C@@H](C)C(=O)N[C@@H](Cc1c[nH]c2ccccc12)C(=O)N(C)CC(=O)N1CCC[C@H]1C(=O)N[C@H](C(=O)NCC(=O)N[C@@H](CC(=O)O)C(=O)N[C@@H](CCC(=O)O)C(=O)N[C@@H](CC(=O)O)C(N)=O)[C@@H](C)O [ETEFIAW(N-Me-G)PTGDED] (Ac-ETEFIAW[Sar]PTGDED-NH2)
Table 8, in μM, read-out: Ki (nM) mean ± SEM
  Ki: > 6250 nM
